Results on 15 compounds are retold here after PubChem BioAssay AID328 (DTP/NCI, 2004).

Several values for one entry are separate records, joined by “and”; a condition that tells them apart may be missing. Identical values can stand only once. Inconclusive results and toxic doses are left out.

This experiment has as its system BDF1 mice, P388 leukemia ip, median survival T/C. Nature of the experiment: NCI In Vivo Anticancer Drug Screen. Data for tumor model P388 Leukemia (intraperitoneal) in B6D2F1 (BDF1) mice. The settings on record: endpoint: median survival time, higher = longer survival. In short, it runs like this: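 Compound-treated tumour-bearing mice were compared with vehicle-treated controls. Survival was recorded, and the value is the treated-group measurement divided by the control-group measurement (T/C).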

Where [1] appears, read: dose: 100.0 mg/kg/injection, schedule: Q01DX009 (ip), vehicle: saline with Tween-80.
[2] abbreviates: dose: 100.0 mg/kg/injection, schedule: Q04DX003 (ip), vehicle: saline with Tween-80.
Where [3] appears, read: dose: 200.0 mg/kg/injection, schedule: Q01DX009 (ip), vehicle: saline with Tween-80.
Setting [4] is: dose: 200.0 mg/kg/injection, schedule: Q04DX003 (ip), vehicle: saline with Tween-80.
Where [5] appears, read: dose: 400.0 mg/kg/injection, schedule: Q01DX009 (ip), vehicle: saline with Tween-80.
Where [6] appears, read: dose: 400.0 mg/kg/injection, schedule: Q04DX003 (ip), vehicle: saline with Tween-80.
Where [7] appears, read: dose: 50.0 mg/kg/injection, schedule: Q01DX009 (ip), vehicle: Klucel (hydroxypropylcellulose) (HPC).
Setting [8] is: dose: 100.0 mg/kg/injection, schedule: Q01DX009 (ip), vehicle: Klucel (hydroxypropylcellulose) (HPC).
Setting [9] is: dose: 200.0 mg/kg/injection, schedule: Q01DX009 (ip), vehicle: Klucel (hydroxypropylcellulose) (HPC).
Where [10] appears, read: dose: 100.0 mg/kg/injection, schedule: Q04DX003 (ip), vehicle: Klucel (hydroxypropylcellulose) (HPC).
Where [11] appears, read: dose: 200.0 mg/kg/injection, schedule: Q04DX003 (ip), vehicle: Klucel (hydroxypropylcellulose) (HPC).
The mark [12] stands for this setting: dose: 400.0 mg/kg/injection, schedule: Q04DX003 (ip), vehicle: Klucel (hydroxypropylcellulose) (HPC).
Where [13] appears, read: dose: 50.0 mg/kg/injection, schedule: Q01DX009 (ip), vehicle: saline with Tween-80.

For the compound `CCCCCCCCCC(O)CCCCC` (configuration not stated), the T/C (dose: 20.0 mg/kg/injection, schedule: Q01DX009 (ip), vehicle: saline with Tween-80) was 100 % of control; the T/C (dose: 25.0 mg/kg/injection, schedule: Q04DX003 (ip), vehicle: saline with Tween-80) is 95 % of control; the T/C (dose: 45.0 mg/kg/injection, schedule: Q01DX009 (ip), vehicle: saline with Tween-80) was 100 % of control; the T/C (dose: 50.0 mg/kg/injection, schedule: Q04DX003 (ip), vehicle: saline with Tween-80) is 108 % of control; the T/C (dose: 90.0 mg/kg/injection, schedule: Q01DX009 (ip), vehicle: saline with Tween-80) is 104 % of control; the T/C under setting [1] is 113 % of control. Further, the T/C was 170 % of control (dose: 100.0 mg/kg/injection, schedule: Q01DX009 (ip), vehicle: saline); 100 % of control under setting [2]; 95 % of control (dose: 135.0 mg/kg/injection, schedule: Q01DX009 (ip), vehicle: saline with Tween-80); 108 % of control under setting [3]; 95 % of control under setting [4]; 113 % of control under setting [5]. Besides, the T/C under setting [6] is 100 % of control.
In the case of `CCC1=CC(C(O)CC(C)C)C(C)(Cc2ccc(CC)cn2)NC1c1ccccc1` (configuration not stated), the T/C is, setting by setting: (dose: 25.0 mg/kg/injection, schedule: Q04DX002 (ip), vehicle: saline with Tween-80) 101 % of control; (dose: 50.0 mg/kg/injection, schedule: Q04DX002 (ip), vehicle: saline with Tween-80) 106 % of control.
Take `OC1OC2COC(c3ccccc3)OC2C(O)C1O` (configuration not stated): the T/C is, setting by setting: (dose: 75.0 mg/kg/injection, schedule: Q01DX009 (ip), vehicle: saline with Tween-80) 107 % of control; (dose: 150.0 mg/kg/injection, schedule: Q01DX009 (ip), vehicle: saline with Tween-80) 94 % of control; (dose: 300.0 mg/kg/injection, schedule: Q01DX009 (ip), vehicle: saline with Tween-80) 91 % of control.
As to `O=C(CC(NC(=O)OCc1ccccc1)c1nn[nH]n1)OCc1ccccc1` (configuration not stated), the T/C under setting [2] is 100 % of control, the T/C under setting [4] is 95 % of control and the T/C under setting [6] was 95 % of control.
Take `C[CH2][Pb]([CH2]C)([CH2]C)[O]C(=O)c1ccc(N)cc1`: the T/C (dose: 0.75 mg/kg/injection, schedule: Q01DX009 (ip), vehicle: Klucel (hydroxypropylcellulose) (HPC)) is 100 % of control; the T/C (dose: 1.5 mg/kg/injection, schedule: Q01DX009 (ip), vehicle: Klucel (hydroxypropylcellulose) (HPC)) is 110 % of control; the T/C (dose: 1.56 mg/kg/injection, schedule: Q01DX009 (ip), vehicle: Klucel (hydroxypropylcellulose) (HPC)) was 111 % of control; the T/C (dose: 3.0 mg/kg/injection, schedule: Q01DX009 (ip), vehicle: Klucel (hydroxypropylcellulose) (HPC)) is 110 % of control and 117 % of control; the T/C (dose: 3.12 mg/kg/injection, schedule: Q01DX009 (ip), vehicle: Klucel (hydroxypropylcellulose) (HPC)) is 114 % of control and 119 % of control; the T/C (dose: 6.0 mg/kg/injection, schedule: Q01DX009 (ip), vehicle: Klucel (hydroxypropylcellulose) (HPC)) was 119 % of control and 122 % of control. Besides, the T/C was 104 % of control (dose: 6.25 mg/kg/injection, schedule: Q01DX009 (ip), vehicle: Klucel (hydroxypropylcellulose) (HPC)); 99 % of control (dose: 12.0 mg/kg/injection, schedule: Q01DX009 (ip), vehicle: Klucel (hydroxypropylcellulose) (HPC)); 93 % of control and 106 % of control (dose: 12.5 mg/kg/injection, schedule: Q01DX009 (ip), vehicle: Klucel (hydroxypropylcellulose) (HPC)).
Turning to `COc1ccc2c3c(ccc2c1)C(=O)C(C)(C#N)CC3` (configuration not stated), the T/C is, setting by setting: under setting [7], 104 % of control; under setting [8], 95 % of control; (dose: 100.0 mg/kg/injection, schedule: Q04DX003 (ip), vehicle: other) 95 % of control; under setting [9], 100 % of control; (dose: 200.0 mg/kg/injection, schedule: Q04DX003 (ip), vehicle: other) 100 % of control; (dose: 400.0 mg/kg/injection, schedule: Q04DX003 (ip), vehicle: other) 95 % of control.
For `CN(C)c1ccc(/C=C/c2nccc3ccccc23)cc1`, the T/C was 114 % of control (dose: 0.78 mg/kg/injection, schedule: Q01DX009 (ip), vehicle: saline with Tween-80); 112 % of control (dose: 1.56 mg/kg/injection, schedule: Q01DX009 (ip), vehicle: saline with Tween-80); 102 % of control (dose: 3.13 mg/kg/injection, schedule: Q01DX009 (ip), vehicle: saline with Tween-80); 107 % of control and 110 % of control (dose: 6.25 mg/kg/injection, schedule: Q01DX009 (ip), vehicle: saline with Tween-80).
Turning to `CC[C@H](CC[C@@H](C)[C@H]1CC[C@H]2[C@@H]3CC=C4C[C@@H](OC(=O)CN5CCNCC5)CC[C@]4(C)[C@H]3CC[C@]12C)C(C)C`, the T/C is 104 % of control under setting [7] and 104 % of control under setting [8].
On to `NC1=C(c2ccccc2)C(=O)c2ccccc21`, for which the T/C under setting [10] was 104 % of control, the T/C under setting [11] was 109 % of control and the T/C under setting [12] is 109 % of control.
As to `O=C1OC(c2ccc([N+](=O)[O-])cc2)Sc2ccccc21` (configuration not stated), the T/C under setting [7] is 86 % of control; the T/C (dose: 100.0 mg/kg/injection, schedule: Q01DX001 (ip), vehicle: Klucel (hydroxypropylcellulose) (HPC)) was 100 % of control; the T/C under setting [10] is 100 % of control; the T/C (dose: 200.0 mg/kg/injection, schedule: Q01DX001 (ip), vehicle: Klucel (hydroxypropylcellulose) (HPC)) is 100 % of control; the T/C under setting [9] is 100 % of control; the T/C under setting [11] is 104 % of control. Further, the T/C (dose: 400.0 mg/kg/injection, schedule: Q01DX001 (ip), vehicle: Klucel (hydroxypropylcellulose) (HPC)) is 100 % of control and the T/C under setting [12] is 109 % of control.
Turning to `[O-][Cl+3]([O-])([O-])O.[O-][n+]1c2ccccc2nc2ccccc21.[Zn+2]`, the T/C under setting [13] was 123 % of control.
With `Clc1cccc(-c2nc3ccccc3c3ccccc23)c1`, the T/C by setting is: under setting [1], 105 % of control; under setting [3], 120 % of control; under setting [5], 95 % of control.
With `CS(=O)(=O)CC(O)(c1ccccc1)c1cccnc1` (configuration not stated), the T/C under setting [13] was 98 % of control, the T/C under setting [1] was 104 % of control and the T/C under setting [3] is 98 % of control.
With `CC[Se](CC)CC.CC[Se](CC)CC.C[CH2][Ge]([CH2]C)[O][Ge]([CH2]C)[CH2]C`, the T/C under setting [1] is 107 % of control.
With `COc1ccccc1/C=C/c1ccnc2ccccc12`, the T/C is 95 % of control under setting [8]; 110 % of control under setting [10]; 113 % of control under setting [9]; 115 % of control under setting [11]; 122 % of control (dose: 400.0 mg/kg/injection, schedule: Q01DX009 (ip), vehicle: Klucel (hydroxypropylcellulose) (HPC)); 105 % of control under setting [12].
